Data reported in BindingDB's records for doi:10.1021/jm9707030 (Boehringer Ingelheim Pharmaceuticals, 1998).

Experiments:
[1] = biological target: T1, Gag-Pol polyprotein [600-1027,R876K]/[600-1155] (Human immunodeficiency virus 1, UniProt P03366, R876K); assay: HIV-1 RT Assay
T1 construct: 600-1027; 600-1155

[2] = biological target: T2, Gag-Pol polyprotein [600-1027,Y780C]/[600-1155,Y780C] (Human immunodeficiency virus 1, UniProt P03366, Y780C); assay: HIV-1 RT Assay; settings: pH 7.8; 22 °C
T2 construct: 600-1027; 600-1155

Compound	IC50 [1]	also measured
CCN1c2ncc(COc3cc[n+]([O-])c(C)c3)cc2C(=O)N(C)c2ccc(Cl)nc21 [2-Chloro-5,11-dihydro-11-ethyl-5-methyl-8-((4-(2-methyl-1-oxo-pyridinyl))oxy)methyl-6H-dipyrido[3,2-b:2 ,3-e][1,4]diazepin-6-one]	100 nM	–
CCN1c2ncc(COc3ccccc3O)cc2C(=O)N(C)c2ccc(Cl)nc21 [5-chloro-2-ethyl-13-(2-hydroxyphenoxymethyl)-9-methyl-2,4,9,15-tetraazatricyclo[9.4.0.0^{3,8}]pentadeca-1(11),3,5,7,12,14-hexaen-10-one]	–	IC50 ([1]; pH 7.8, 22 °C): 100 nM
CCN1c2ncc(CS(=O)(=O)c3ccccc3)cc2C(=O)N(C)c2ccc(Cl)nc21 [13-[(benzenesulfonyl)methyl]-5-chloro-2-ethyl-9-methyl-2,4,9,15-tetraazatricyclo[9.4.0.0^{3,8}]pentadeca-1(15),3(8),4,6,11,13-hexaen-10-one]	100 nM	–
CCN1c2ncc(CNc3cccc(N)c3)cc2C(=O)N(C)c2ccc(Cl)nc21 [13-{[(3-aminophenyl)amino]methyl}-5-chloro-2-ethyl-9-methyl-2,4,9,15-tetraazatricyclo[9.4.0.0^{3,8}]pentadeca-1(11),3,5,7,12,14-hexaen-10-one]	–	IC50 [2]: 100 nM
